Results from patent publication US8835629B2, “Anti-cancer agents” (The Walter and Eliza Hall Institute of Medical Research, priority 2010, dated 2014).
Entries after “also recorded” stand apart in the source; their conditions may differ.

Legend:
BaF/3 = assay: MTT cell proliferation assay, BaF/3; format: cell-based; details: Mus musculus, BaF3, 72 h; BaF/3 murine B-cell progenitor line; MTT after 3 days of incubation; read-out: IC50, inhibition of proliferation
Description: (§1) Compound 2 was tested on a series of cell lines to determine its activity and selectivity (Table 2). Cell proliferation was measured using the MTT assay (for protocol see Example 2.6) after 3 days of incubation with the inhibitor.
(§2) • Cells plated at […] in 100 μl medium+5% FCS (+Adds^1): • Cells incubated overnight: • Titrate inhibitors in a fresh plate in 150 μl medium • Transfer 100 μl titrated compounds to matching wells of the cell plate. • Incubate a further 4 days: • Add 10 μl MTS^2 or MTT^3 for 1.5 to 2 hours and read on Multiscanner (wavelengths 492/690) ^1 Additives for culture of LIM cell lines: 10 μM thioglycerol, 0.025 U/ml insulin, 1 μg/ml hydrocortisone. ^2 3-(4,5-dimethylthiazol-2-yl)-5-(3-carboxymethoxyphenyl)-2-(4-sulfophenyl)-2H-tetrazolium. ^3 3-(4,5-Dimethylthiazol-2-yl)-2,5-diphenyltetrazolium bromide
(§3) Cells are trypsinized and washed ×2 in medium+5% FCS and plate out at 10^4 cells per well in 100 μl.
(§4) Incubate plates o/n 37° C.+5%-10% CO2 incubator.
(§5) Inhibitors are dissolved in DMSO to make 10 mM stocks and titrated in a 96 well plate in duplicate to use as the stock for the test plate. […]
(§6) Read OD of plates on Thermo Multiskan Ex, at 560/690 nm.

LIM 1215 = assay: MTT cell proliferation assay, LIM 1215; format: cell-based; details: LIM1215, 72 h; LIM 1215 human colorectal carcinoma; MTT after 3 days of incubation; read-out: IC50, inhibition of proliferation
Description: as §1, §2, §3, §4, §5, §6

BaF/3 cells = assay: Anti-mitotic effects of metabolites recovered from mouse plasma (G2/M, FACS); format: cell-based, murine; details: BaF3, 24 hr, FACS with Propidium Iodide, concentration of recovered peaks difficult to quantify, read-out: IC50 (G2/M block) of peaks recovered from mouse plasma
Description: FIG. 5: Anti-mitotic effects of metabolites recovered from mouse plasma after compound 2 injection. BaF/3 cells were incubated for 24 hr with increasing amounts of each reconstituted peak. Cell cycle distribution was assessed by FACS analysis using Propidium Iodide. The percentage of cells in the G2/M phase of the cell cycle was determined using ModFi
The mouse plasma was fractionated on RP-HPLC and the peaks indicated above were collected. The pooled peak samples were concentrated by lyophilization. A portion of each peak sample was reconstituted in culture media for bioassay (FIG. 5). The remainder was analyzed by LC-MS to confirm the mass and identify the structures.

[1] = system: LIM 2537 (colon carcinoma cell line) tumors; assay: Tumor xenograft study with LIM 2537 cells; format: in vivo, BALB/c nude mice; details: 15 mg/kg SC
Description: FIG. 7: LIM2537 tumor growth in nude mice. Tumor diameters were measured with external calipers every three days and tumor volume calculated with the formula: π/6×(L×W^2).
The mice were inoculated with 3×10^6 cells per tumor in 100 μl PBS, one tumor on each flank subcutaneously (SC). Treatments were started on the third day after inoculation with either vehicle control (VC) or 100 μl of drug at 3 mg/ml in aqueous solution giving a dose of 15 mg/kg. Mice were injected SC in the abdomen, three times per week for the duration of the experiment. The mice were monitored for body weight, tumor volume and appearance, and for any adverse reactions to the drug. The experiment was terminated after 33 days and the control group euthanized, as the tumor burden in that group had reached the maximum allowed. The remaining mice were then left without treatment for a further 9 days to monitor resumption of tumor growth.

[2] = system: H1437 (non-small cell lung cancer cell line) tumours; assay: Tumor xenograft study with H1437; format: in vivo, Balb/c nu/nu mice
Description: FIG. 10: H1437 tumor growth in nude mice. Tumor diameters were measured with external callipers every three days and tumor volume calculated with the formula: π/6×(L×W2).
Mice: Balb/c nu/nu male; 8 controls and 8 treated; 5 weeks old.
Cells inoculated: H1437 (non-small cell lung cancer cell line) at 2×10^6 cells/tumour; two tumours per mouse.
Dose: Compound 2 at 20 mg/kg=100 μl of 4 mg/ml in water for injection per 20 g mouse. Control mice were injected with 100 μl water for injection.
Treatment and monitoring: Treatment commenced at Day 5 after inoculation. Mice were injected SC in abdomen three times per week, on alternating sides. Mice were weighed; tumour diameters measured in two dimensions and the health of the mice was monitored. Injections correspond to data points on the plots, with an additional treatment on Day 14 when no measurements were made.

COc1ccc(CNc2nc(NCc3ccc(CN)cc3)nc(NN3CC(=O)NC3=O)n2)cc1 (single isomer, unassigned) [Compound 2, 1-[4-(4-aminomethyl-benzylamino)-6-(4-methoxybenzylamino)-{1,3,5}-triazin-2-yl-amino]-imidazolidine-2,4-dione]
IC50 (BaF/3): 30 nM | IC50 (LIM 1215): 90 nM | IC50 (BaF/3 cells): 100 nM | Tumor growth (tumor volume) ([1]; 3 injections per week from day 3, 33 days): significantly reduced the rate of growth of the tumors; also recorded: successful in slowing the growth of LIM 2537 cells | Mouse body weights ([1]; three times per week): not affected | Adverse reaction to the drug ([1]; three times per week, aqueous formulation): no long term adverse reaction | Tumour growth (tumour volume) ([2]; 20 mg/kg SC three times per week from day 5, terminated at 26 days): Clear difference; also recorded: significant difference in volume between control and treated tumours | Size of dissected tumours ([2]; 20 mg/kg three times per week, after sacrifice): clear difference in size
